In brackets after ≈: the same amount, converted by molar mass.
Legend:
Experiment in all cases: in vitro antibacterial evaluation, MIC by broth dilution
Type in all cases: cell-based
[1] = test system: Staphylococcus sp.; settings: broth dilution, 18 hours at 35° C.; for MIC Staphylococcus aureus (ATCC 29213): strain ATCC 29213; for MIC Staphylococcus aureus (GC 1131): strain GC 1131; for MIC Staphylococcus aureus (GC 3051): strain GC 3051; for MIC Staphylococcus aureus (GC 3053): strain GC 3053; for MIC Staphylococcus aureus (GC 4541): strain GC 4541; for MIC Staphylococcus aureus (GC 4542): strain GC 4542; for MIC Staphylococcus aureus-SMITH (GC 4543): strain GC 4543; for MIC Staphylococcus aureus (GC 4544): strain GC 4544; for MIC Staphylococcus aureus (GC 4545): strain GC 4545; for MIC Staphylococcus haemolyticus (GC 4546): strain GC 4546; for MIC Coagulase Negative Staphylococcus (GC 4547): strain GC 4547; for MIC Coagulase Negative Staphylococcus (GC 4548): strain GC 4548; for MIC Coagulase Negative Staphylococcus (GC 4549): strain GC 4549; for MIC Coagulase Negative Staphylococcus (GC 4551): strain GC 4551; for MIC Coagulase Negative Staphylococcus (GC 6257): strain GC 6257
Summary of the method: (§1)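 Broth dilution per NCCLS standard M7-A2 in Muller-Hinton II […], with an inoculum of 5×10^5 CFU/mL and antibiotic spanning 64-0.06 μg/mL. The MIC is the lowest concentration that inhibits growth of the organism.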

[2] = test system: Streptococcus sp.; settings: broth dilution, 18 hours at 35° C.; for MIC Streptococcus pneumoniae (ATCC 6301): strain ATCC 6301; for MIC Streptococcus pneumoniae (GC 1894): strain GC 1894; for MIC Streptococcus pyogenes (GC 4563): strain GC 4563; for MIC Streptococcus agalactiae (GC 4564): strain GC 4564; for MIC Streptococcus pneumoniae (GC 4565): strain GC 4565
Summary of the method: as §1

[3] = test system: Enterococcus sp.; settings: broth dilution, 18 hours at 35° C.; for MIC Enterococcus faecalis (ATCC 29212): strain ATCC 29212; for MIC Enterococcus faecalis (GC 2242): strain GC 2242; for MIC Enterococcus faecium (GC 2243): strain GC 2243; for MIC Enterococcus faecalis (GC 2691): strain GC 2691; for MIC Enterococcus faecalis (GC 3059): strain GC 3059; for MIC Enterococcus faecalis (GC 4552): strain GC 4552; for MIC Enterococcus faecalis (GC 4553): strain GC 4553; for MIC Enterococcus faecalis (GC 4554): strain GC 4554; for MIC Enterococcus faecium (GC 4556): strain GC 4556; for MIC Enterococcus faecium (GC 4557): strain GC 4557; for MIC Enterococcus avium (GC 4558): strain GC 4558; for MIC Enterococcus faecalis (GC 6189): strain GC 6189
Summary of the method: as §1

[4] = test system: Escherichia coli; settings: broth dilution, 18 hours at 35° C.; for MIC Escherichia coli (ATCC 25922): strain ATCC 25922; for MIC Escherichia coli (GC 4559): strain GC 4559; for MIC Escherichia coli (GC 4560): strain GC 4560
Summary of the method: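 Broth dilution in Muller-Hinton II medium per NCCLS standard M7-A2, with an inoculum of 5×10^5 CFU/mL and antibiotic tested over 64-0.06 μg/mL. MIC was taken as the lowest concentration inhibiting visible growth.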

CC(c1ccccc1)C1NC(=O)CNC(=O)C(CO)NC(=O)C(C(O)C2CNC(=N)N2C2OC(CO)C(O)C(O)C2O)NC(=O)C(C(O)C2CNC(=N)N2)NC(=O)C(Cc2ccc(O)c(NC(=S)Nc3cc(C(F)(F)F)cc(C(F)(F)F)c3)c2)NC1=O (stereo not drawn) [Example 24, Cyclo[glycyl-β-methylphenylalanyl-3-[[[3,5-bis(trifluoromethyl)phenyl]carbamothioyl]amino]-tyrosyl-3-(2-iminoimidazolidin-4-yl)seryl-3-(3-hexopyranosyl-2-iminoimidazolidin-4-y)-serylseryl]]
MIC Staphylococcus aureus (ATCC 29213) [1]: >64 µg/mL | MIC Staphylococcus aureus (GC 1131) [1]: >64 µg/mL | MIC Staphylococcus aureus (GC 3051) [1]: >64 µg/mL | MIC Staphylococcus aureus (GC 3053) [1]: >64 µg/mL | MIC Staphylococcus aureus (GC 4541) [1]: >64 µg/mL | MIC Staphylococcus aureus (GC 4542) [1]: >64 µg/mL | MIC Staphylococcus aureus-SMITH (GC 4543) [1]: >64 µg/mL | MIC Staphylococcus aureus (GC 4544) [1]: >64 µg/mL | MIC Staphylococcus aureus (GC 4545) [1]: >64 µg/mL | MIC Staphylococcus haemolyticus (GC 4546) [1]: 64 µg/mL (≈ 50.9 µM) | MIC Coagulase Negative Staphylococcus (GC 4547) [1]: 64 µg/mL (≈ 50.9 µM) | MIC Coagulase Negative Staphylococcus (GC 4548) [1]: 64 µg/mL (≈ 50.9 µM) | MIC Coagulase Negative Staphylococcus (GC 4549) [1]: >64 µg/mL | MIC Coagulase Negative Staphylococcus (GC 4551) [1]: >64 µg/mL | MIC Coagulase Negative Staphylococcus (GC 6257) [1]: 32 µg/mL (≈ 25.5 µM) | MIC Streptococcus pneumoniae (ATCC 6301) [2]: >64 µg/mL | MIC Streptococcus pneumoniae (GC 1894) [2]: 64 µg/mL (≈ 50.9 µM) | MIC Streptococcus pyogenes (GC 4563) [2]: 64 µg/mL (≈ 50.9 µM) | MIC Streptococcus agalactiae (GC 4564) [2]: >64 µg/mL | MIC Streptococcus pneumoniae (GC 4565) [2]: >64 µg/mL | MIC Enterococcus faecalis (ATCC 29212) [3]: 64 µg/mL (≈ 50.9 µM) | MIC Enterococcus faecalis (GC 2242) [3]: 64 µg/mL (≈ 50.9 µM) | MIC Enterococcus faecium (GC 2243) [3]: 64 µg/mL (≈ 50.9 µM) | MIC Enterococcus faecalis (GC 2691) [3]: >64 µg/mL | MIC Enterococcus faecalis (GC 3059) [3]: >64 µg/mL | MIC Enterococcus faecalis (GC 4552) [3]: >64 µg/mL | MIC Enterococcus faecalis (GC 4553) [3]: 32 µg/mL (≈ 25.5 µM) | MIC Enterococcus faecalis (GC 4554) [3]: >64 µg/mL | MIC Enterococcus faecium (GC 4556) [3]: 64 µg/mL (≈ 50.9 µM) | MIC Enterococcus faecium (GC 4557) [3]: 32 µg/mL (≈ 25.5 µM) | MIC Enterococcus avium (GC 4558) [3]: 64 µg/mL (≈ 50.9 µM) | MIC Enterococcus faecalis (GC 6189) [3]: >64 µg/mL | MIC Escherichia coli (ATCC 25922) [4]: >64 µg/mL | MIC Escherichia coli (GC 4559) [4]: >64 µg/mL | MIC Escherichia coli (GC 4560) [4]: 32 µg/mL (≈ 25.5 µM)

CC(c1ccccc1)C1NC(=O)CNC(=O)C(CO)NC(=O)C(C(O)C2CNC(=N)N2C2OC(CO)C(O)C(O)C2O)NC(=O)C(C(O)C2CNC(=N)N2)NC(=O)C(Cc2ccc3oc(SCc4ccccc4)nc3c2)NC1=O (stereo not drawn) [Example 45, Cyclo[3-[2-(benzylthio)-1,3-benzoxazol-5-yl]alanyl-3-(2-iminoimidazolidin-4-yl)seryl-3-(3-hexopyranosyl-2-iminoimidazolidin-4-yl)serylserylglycyl-β-methylphenylalanyl]]
MIC Staphylococcus aureus (ATCC 29213) [1]: 8 µg/mL (≈ 7.15 µM) | MIC Staphylococcus aureus (GC 1131) [1]: 8 µg/mL (≈ 7.15 µM) | MIC Staphylococcus aureus (GC 3051) [1]: 8 µg/mL (≈ 7.15 µM) | MIC Staphylococcus aureus (GC 3053) [1]: 8 µg/mL (≈ 7.15 µM) | MIC Staphylococcus aureus (GC 4541) [1]: 16 µg/mL (≈ 14.3 µM) | MIC Staphylococcus aureus (GC 4542) [1]: 8 µg/mL (≈ 7.15 µM) | MIC Staphylococcus aureus-SMITH (GC 4543) [1]: 8 µg/mL (≈ 7.15 µM) | MIC Staphylococcus aureus (GC 4544) [1]: 8 µg/mL (≈ 7.15 µM) | MIC Staphylococcus aureus (GC 4545) [1]: 8 µg/mL (≈ 7.15 µM) | MIC Staphylococcus haemolyticus (GC 4546) [1]: 4 µg/mL (≈ 3.58 µM) | MIC Coagulase Negative Staphylococcus (GC 4547) [1]: 4 µg/mL (≈ 3.58 µM) | MIC Coagulase Negative Staphylococcus (GC 4548) [1]: 8 µg/mL (≈ 7.15 µM) | MIC Coagulase Negative Staphylococcus (GC 4549) [1]: 4 µg/mL (≈ 3.58 µM) | MIC Coagulase Negative Staphylococcus (GC 4551) [1]: 8 µg/mL (≈ 7.15 µM) | MIC Coagulase Negative Staphylococcus (GC 6257) [1]: 4 µg/mL (≈ 3.58 µM) | MIC Streptococcus pneumoniae (ATCC 6301) [2]: 16 µg/mL (≈ 14.3 µM) | MIC Streptococcus pneumoniae (GC 1894) [2]: 16 µg/mL (≈ 14.3 µM) | MIC Streptococcus pyogenes (GC 4563) [2]: 4 µg/mL (≈ 3.58 µM) | MIC Streptococcus agalactiae (GC 4564) [2]: 16 µg/mL (≈ 14.3 µM) | MIC Streptococcus pneumoniae (GC 4565) [2]: 32 µg/mL (≈ 28.6 µM) | MIC Enterococcus faecalis (ATCC 29212) [3]: 32 µg/mL (≈ 28.6 µM) | MIC Enterococcus faecalis (GC 2242) [3]: 16 µg/mL (≈ 14.3 µM) | MIC Enterococcus faecium (GC 2243) [3]: 16 µg/mL (≈ 14.3 µM) | MIC Enterococcus faecalis (GC 2691) [3]: 32 µg/mL (≈ 28.6 µM) | MIC Enterococcus faecalis (GC 3059) [3]: 32 µg/mL (≈ 28.6 µM) | MIC Enterococcus faecalis (GC 4552) [3]: 16 µg/mL (≈ 14.3 µM) | MIC Enterococcus faecalis (GC 4553) [3]: 16 µg/mL (≈ 14.3 µM) | MIC Enterococcus faecalis (GC 4554) [3]: 16 µg/mL (≈ 14.3 µM) | MIC Enterococcus faecium (GC 4556) [3]: 32 µg/mL (≈ 28.6 µM) | MIC Enterococcus faecium (GC 4557) [3]: 4 µg/mL (≈ 3.58 µM) | MIC Enterococcus avium (GC 4558) [3]: 8 µg/mL (≈ 7.15 µM) | MIC Enterococcus faecalis (GC 6189) [3]: 16 µg/mL (≈ 14.3 µM) | MIC Escherichia coli (ATCC 25922) [4]: 16 µg/mL (≈ 14.3 µM) | MIC Escherichia coli (GC 4559) [4]: 16 µg/mL (≈ 14.3 µM) | MIC Escherichia coli (GC 4560) [4]: 4 µg/mL (≈ 3.58 µM)

Source: patent publication US6914045B2, “Glycopeptide antibiotics” (Wyeth Holdings Corporation, priority 2001, dated 2005)
